Patent US20050084908A1, “Methods for detecting binding of low-molecular-weight compound and its binding partner molecule” (CHUGAI SEIYAKU KABUSHIKI KAISHA, priority 2000, published 2005)
Where “and” joins values, the source holds several entries; their conditions need not be identical. Equal entries are not always repeated.

B1: ERLBD: partial sequence containing the ligand binding domain of human estrogen receptor-α (Ala288-Arg555) (protein, UniProt P03372 288-555, looked up, fragment)
chain: AANLWPSPLMIKRSKKNSLALSLTADQMVSALLDAEPPILYSEYDPTRPFSEASMMGLLTNLADRELVHMINWAKRVPGFVDLTLHDQVHLLECAWLEILMIGLVWRSMEHPGKLLFAPNLLLDRNQGKCVEGMVEIFDMLLATSSRFRMMNLQGEEFVCLKSIILLNSGVYTFLSSTLKSLEEKDHIHRVLDKITDTLIHLMAKAGLTLQQQHQRLAQLLLILSHIRHMSNKGMEHLYSMKCKNVVPLYDLLLEMLDAHRLHAPTSR
B2: ERLBD #112: lot of purified ERLBD (protein, UniProt P03372 288-555, looked up, fragment)
chain: B1 chain
B3: ERLBD #113: lot of purified ERLBD (protein, UniProt P03372 288-555, looked up, fragment)
chain: B1 chain
B4: ERLBD #111: lot of purified ERLBD (protein, UniProt P03372 288-555, looked up, fragment)
chain: B1 chain
B5: ERLBD #110: lot of purified ERLBD (protein, UniProt P03372 288-555, looked up, fragment)
chain: B1 chain

Experiments:
[1] = target: T1, Recombinant human Vitamin D3 receptor (VDR) (Homo sapiens, UniProt P11473); assay: Inhibition of binding of immobilized ED-533 to VDR (SPR, BIACORE 3000); conditions: VDR 100 nM; for inhibitory activity compared with 1,25(OH)2 vitamin D3 (in words): compound 0, 10, 100 or 1000 nM, FIG. 7; for IC50: test compound 0-1000 nM, 1 hr room temperature, 5% DMSO
T1 construct: purchased Pan Vera Corp
T1 sequence (P11473 1-427): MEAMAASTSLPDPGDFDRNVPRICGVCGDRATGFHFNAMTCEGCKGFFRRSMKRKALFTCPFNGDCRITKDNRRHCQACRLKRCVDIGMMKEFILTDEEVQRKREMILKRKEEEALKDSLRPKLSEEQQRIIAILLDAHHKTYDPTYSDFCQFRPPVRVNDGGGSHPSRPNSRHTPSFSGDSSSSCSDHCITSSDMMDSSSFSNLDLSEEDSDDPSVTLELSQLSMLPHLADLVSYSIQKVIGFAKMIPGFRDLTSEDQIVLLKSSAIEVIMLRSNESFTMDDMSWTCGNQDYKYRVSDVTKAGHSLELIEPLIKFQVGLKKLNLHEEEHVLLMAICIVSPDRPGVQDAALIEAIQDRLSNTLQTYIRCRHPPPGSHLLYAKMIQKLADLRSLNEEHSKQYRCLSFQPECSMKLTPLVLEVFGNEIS
Procedure: HBS-EP containing 5% DMSO was used as a running buffer, and the flow rate was set at 5 μl/min. Carboxyl groups of carboxymethyl dextran on the Sensor Chip CM5 were activated by injecting 100 μl of 0.05 M N-hydroxysuccinimide (NHS)/0.2 M N-ethyl-N′-(3-dimethyl aminopropyl)carbodiimide (EDC). […] Aliquots (10 to 40 μl) were injected onto the chip and immobilized by the amine coupling method. Excessive activated groups were blocked by injecting 100 μl of ethanolamine, pH 8.5. Non-covalently bound substances were washed out by injecting 10 μl each of 50% aqueous DMSO solution and 50% PrOH/10% DMSO/50 mM HCl.
The structural formulae of OCT and ED-71 are represented by formulae (2) and (3), respectively. [drawing 2]

[2] = BIACORE (SPR) binding activity assay of MBP-ERLBD and ERLBD to immobilized 7α-(9-aminononyl)estradiol; conditions: analyte 20 μg/ml, 10 μl injection; single values of duplicate (n = 2)
Procedure: Immobilization of 7α-(9-aminononyl)estradiol on the Sensor Chip CM5 (Pharmacia) was carried out as follows. HBS was used as a continuous flow buffer, and the flow rate was set at 5 μl/min. Carboxyl groups of carboxymethyl dextran on the Sensor Chip CM5 were activated by injecting 100 μl of 0.05 M N-hydroxysuccinimide (NHS)/0.2 M N-ethyl-N′-(3-dimethyl aminopropyl)-carbodiimide (EDC). 7α-(9-aminononyl)estradiol (approx. 7 mg/ml in benzene, approx. 4.5 mg/ml in 2-PrOH) was first diluted 10-fold in EtOH, further diluted 10-fold using 10 mM Na-acetate buffer, pH 4.0 or pH 4.5. Aliquots (10 to 50 μl) were injected onto the chip and immobilized by the amine coupling method. Then, excessive activated groups were blocked by injecting 100 μl of ethanolamine, pH 8.5. Further, non-covalently bound substances were washed out by 10 μl of 0.1 M Gly-HCl buffer, pH 2.5 and 10 mM HCl.
The reaction principle was illustrated in FIG. 2. MBP-ERLBD (20 μg/ml, 10 μl) or ERLBD (20 μg/ml, 10 μl) which were prepared by the above-described method were injected onto the chip to assay their binding activities to the immobilized 7α-(9-aminononyl)estradiol. Regeneration and washing of sensor chips were performed by injecting 10 μl of 7% propanol/50 mM HCl.
For the purpose of measuring the reproducibility and lot-to-lot variations of the binding activity assay, the binding activity assay was performed using different lots of MBP-ERLBD and ERLBD preparations to compare assay values in duplicate. The binding levels of MBP-ERLBD (Lot #90) (20 μg/ml, 10 μl) were 2124.9 and 2048.9 RU, indicating a high reproducibility (% CV=2.6%) (Table 1). Highly reproducible data were also obtained for ERLBD (Lots. #110, #111, #112, and #113) (20 μg/ml, 10 μl each), as shown in Table 1. […] The results also indicate that binding activities can be accurately compared lot-to-lot variations, and that this method may be applied to the product quality control, etc. This method has also enabled easily monitoring active fractions in the purification process of ERLBD, leading to shortening of its preparation time. Results of examination of the reproducibility of the binding activity assay and the comparison thereof among sample lots are summarized in Table 1.
Using MBP-ERLBD (Lot #90) and ERLBD (Lots. #110, #111, #112, and #113) as the binding molecule, the binding activity was assayed in duplicate. RU is the unit of surface plasmon resonance intensity. % CV represents the dispersion in duplicate, indicating the larger the value, the greater the dispersion.

[3] = Conventional RI method binding activity assay using labeled oestradiol; conditions: 100% = [6,7-3H]oestradiol bound to all the ERLBD added, single replicate values
From the text: FIG. 5 schematically illustrates a conventional binding assay using a ligand labeled with radioisotope (RI). ^3H-ligand stands for [6,7-^3H]estradiol, MBP-LBD for MBP-ERLBD, and LBD for ERLBD After the ligand and the binding molecule are mixed and allowed to stand at room temperature for 6 hr, the resulting mixture is subjected to the Bound/Free separation procedure. The amount of [6,7-^3H]estradiol bound to MBP-ERLBD or ERLBD is detected with a scintilator.
The binding activity of [6,7-^3H]oestradiol (Amersham Pharmacia Biotech) to a full-length human estrogen receptor-α, ERLBD, and MBP-ERLBD was assayed according to a conventional method using a ligand labeled with radioisotope (RI) (Sasson, S. and Notides, A. C. (1988) Mol. Endcrinol., Vol. 2, No. 4, p307-312). The reaction is schematically illustrated in FIG. 5. The RI value obtained when [6,7-^3H]oestradiol bound to all the ERLBD added to the assay system was taken as 100%, and the relative binding activity was calculated. A full-length human estrogen receptor-α and MBP-ERLBD (lot #87 and #90) were used as the binding molecule. […] The method of the present invention uses proteins as the binding molecule, and the reaction time is thus short, so that the binding activity can be measured with a good reproducibility without causing a decrease in the binding activity.

Molecule | inhibitory activity compared with 1,25(OH)2 vitamin D3 (in words) [1] | IC50 [1] | Response [RU], binding level to immobilized 7α-(9-aminononyl)estradiol [2] | Relative activity (%), binding of [6,7-3H]oestradiol [3]
C=C1/C(=C\C=C2/CCC[C@]3(C)[C@@H]([C@H](C)CCCC(C)(C)O)CC[C@@H]23)C[C@@H](O)[C@@H](OCCCO)[C@@H]1O [ED-71, 2β-(3-Hydroxypropoxy)-1α,25-dihydroxyvitamin D3] | almost the same inhibitory activities | 500 nM | – | –
C=C1/C(=C\C=C2/CCC[C@]3(C)[C@@H]([C@H](C)OCCC(C)(C)O)CC[C@@H]23)C[C@@H](O)C[C@@H]1O [OCT, 1α,25-dihydroxy-22-oxavitamin D3] | almost the same inhibitory activities | 110 nM | – | –
C=C1/C(=C\C=C2/CCC[C@@]3(C)C2CC[C@@H]3[C@H](C)CCCC(C)(O)CCCCCCCCCCN)C[C@@H](O)C[C@@H]1O (stereo partly drawn) [ED-533, (1α,3β,5Z,7E)-25-(10-aminodecanyl)-27-nor-9,10-secocholesta-5,7,10(19)-triene-1,3,25-triol] | almost the same inhibitory activities | 520 nM | – | –
B1 | – | – | about 2000 RU | about 10%
B2 | – | – | 1255.7 RU and 1203.9 RU | –
B3 | – | – | 1613.7 RU and 1597.3 RU | –
B4 | – | – | 1032.0 RU and 990.3 RU | –
B5 | – | – | 1825.8 RU and 1815.0 RU | –
